Target: purified human recombinant ATM (ataxia telangiectasia mutated), full length (Homo sapiens (Human), UniProt Q13315)
Experiment: ATM kinase assay - determination of ATM inhibition (IC50 ATM), TR-FRET
Type: biochemical
Settings: 10 μM ATP, substrate p53
Method: ATM kinase assay—determination of ATM inhibition (IC50 ATM):
The IC50 value was determined with the aid of a biochemical ATM kinase assay. The assay consists of two steps: the enzymatic reaction and the detection step. Firstly, ATM (ataxia telangiectasia mutated) protein and the test substance are incubated at different concentrations with addition of substrate protein p53 and ATP. ATM mediates the phosphorylation of p53 at several positions, including at amino acid S15. The amount of phosphorylated p53 is determined with the aid of specific antibodies and the TR-FRET technique. The enzymatic ATM assay is carried out as TR-FRET (HTRF™, Cisbio Bioassays) based 384-well assay. In the first step, purified human recombinant ATM (human ATM, full length, GenBank ID NM_000051, expressed in a mammal cell line) is incubated in assay buffer for 15 minutes with the ATM inhibitor in various concentrations and without test substance as negative or neutral control. The assay buffer comprises 25 mM HEPES pH 8.0, 10 mM Mg(CH3COO)2, 1 mM MnCl2, 0,1% BSA and 0,01% Brij® 35, 5 mM dithiothreitol (DTT). […] In the second step, purified human recombinant cmyc-labelled p53 (human p53, full length, GenBank ID BC003596, expressed in Sf21 insect cells) and ATP are added, and the reaction mixture is incubated at 22° C. for 30-35 minutes. The pharmacologically relevant assay volume is 5 μl. […] The enzymatic reaction is stopped by addition of EDTA. […] After incubation, usually for 2 hours (between 1.5 and 15h), for signal development, the plates are analysed in a plate reader (EnVision, PerkinElmer) using TRF mode (and with laser excitation). […] The measurement data were processed by means of Genedata Screener software.

Sequence of purified human recombinant ATM (ataxia telangiectasia mutated), full length (Q13315 whole entry, change not shown): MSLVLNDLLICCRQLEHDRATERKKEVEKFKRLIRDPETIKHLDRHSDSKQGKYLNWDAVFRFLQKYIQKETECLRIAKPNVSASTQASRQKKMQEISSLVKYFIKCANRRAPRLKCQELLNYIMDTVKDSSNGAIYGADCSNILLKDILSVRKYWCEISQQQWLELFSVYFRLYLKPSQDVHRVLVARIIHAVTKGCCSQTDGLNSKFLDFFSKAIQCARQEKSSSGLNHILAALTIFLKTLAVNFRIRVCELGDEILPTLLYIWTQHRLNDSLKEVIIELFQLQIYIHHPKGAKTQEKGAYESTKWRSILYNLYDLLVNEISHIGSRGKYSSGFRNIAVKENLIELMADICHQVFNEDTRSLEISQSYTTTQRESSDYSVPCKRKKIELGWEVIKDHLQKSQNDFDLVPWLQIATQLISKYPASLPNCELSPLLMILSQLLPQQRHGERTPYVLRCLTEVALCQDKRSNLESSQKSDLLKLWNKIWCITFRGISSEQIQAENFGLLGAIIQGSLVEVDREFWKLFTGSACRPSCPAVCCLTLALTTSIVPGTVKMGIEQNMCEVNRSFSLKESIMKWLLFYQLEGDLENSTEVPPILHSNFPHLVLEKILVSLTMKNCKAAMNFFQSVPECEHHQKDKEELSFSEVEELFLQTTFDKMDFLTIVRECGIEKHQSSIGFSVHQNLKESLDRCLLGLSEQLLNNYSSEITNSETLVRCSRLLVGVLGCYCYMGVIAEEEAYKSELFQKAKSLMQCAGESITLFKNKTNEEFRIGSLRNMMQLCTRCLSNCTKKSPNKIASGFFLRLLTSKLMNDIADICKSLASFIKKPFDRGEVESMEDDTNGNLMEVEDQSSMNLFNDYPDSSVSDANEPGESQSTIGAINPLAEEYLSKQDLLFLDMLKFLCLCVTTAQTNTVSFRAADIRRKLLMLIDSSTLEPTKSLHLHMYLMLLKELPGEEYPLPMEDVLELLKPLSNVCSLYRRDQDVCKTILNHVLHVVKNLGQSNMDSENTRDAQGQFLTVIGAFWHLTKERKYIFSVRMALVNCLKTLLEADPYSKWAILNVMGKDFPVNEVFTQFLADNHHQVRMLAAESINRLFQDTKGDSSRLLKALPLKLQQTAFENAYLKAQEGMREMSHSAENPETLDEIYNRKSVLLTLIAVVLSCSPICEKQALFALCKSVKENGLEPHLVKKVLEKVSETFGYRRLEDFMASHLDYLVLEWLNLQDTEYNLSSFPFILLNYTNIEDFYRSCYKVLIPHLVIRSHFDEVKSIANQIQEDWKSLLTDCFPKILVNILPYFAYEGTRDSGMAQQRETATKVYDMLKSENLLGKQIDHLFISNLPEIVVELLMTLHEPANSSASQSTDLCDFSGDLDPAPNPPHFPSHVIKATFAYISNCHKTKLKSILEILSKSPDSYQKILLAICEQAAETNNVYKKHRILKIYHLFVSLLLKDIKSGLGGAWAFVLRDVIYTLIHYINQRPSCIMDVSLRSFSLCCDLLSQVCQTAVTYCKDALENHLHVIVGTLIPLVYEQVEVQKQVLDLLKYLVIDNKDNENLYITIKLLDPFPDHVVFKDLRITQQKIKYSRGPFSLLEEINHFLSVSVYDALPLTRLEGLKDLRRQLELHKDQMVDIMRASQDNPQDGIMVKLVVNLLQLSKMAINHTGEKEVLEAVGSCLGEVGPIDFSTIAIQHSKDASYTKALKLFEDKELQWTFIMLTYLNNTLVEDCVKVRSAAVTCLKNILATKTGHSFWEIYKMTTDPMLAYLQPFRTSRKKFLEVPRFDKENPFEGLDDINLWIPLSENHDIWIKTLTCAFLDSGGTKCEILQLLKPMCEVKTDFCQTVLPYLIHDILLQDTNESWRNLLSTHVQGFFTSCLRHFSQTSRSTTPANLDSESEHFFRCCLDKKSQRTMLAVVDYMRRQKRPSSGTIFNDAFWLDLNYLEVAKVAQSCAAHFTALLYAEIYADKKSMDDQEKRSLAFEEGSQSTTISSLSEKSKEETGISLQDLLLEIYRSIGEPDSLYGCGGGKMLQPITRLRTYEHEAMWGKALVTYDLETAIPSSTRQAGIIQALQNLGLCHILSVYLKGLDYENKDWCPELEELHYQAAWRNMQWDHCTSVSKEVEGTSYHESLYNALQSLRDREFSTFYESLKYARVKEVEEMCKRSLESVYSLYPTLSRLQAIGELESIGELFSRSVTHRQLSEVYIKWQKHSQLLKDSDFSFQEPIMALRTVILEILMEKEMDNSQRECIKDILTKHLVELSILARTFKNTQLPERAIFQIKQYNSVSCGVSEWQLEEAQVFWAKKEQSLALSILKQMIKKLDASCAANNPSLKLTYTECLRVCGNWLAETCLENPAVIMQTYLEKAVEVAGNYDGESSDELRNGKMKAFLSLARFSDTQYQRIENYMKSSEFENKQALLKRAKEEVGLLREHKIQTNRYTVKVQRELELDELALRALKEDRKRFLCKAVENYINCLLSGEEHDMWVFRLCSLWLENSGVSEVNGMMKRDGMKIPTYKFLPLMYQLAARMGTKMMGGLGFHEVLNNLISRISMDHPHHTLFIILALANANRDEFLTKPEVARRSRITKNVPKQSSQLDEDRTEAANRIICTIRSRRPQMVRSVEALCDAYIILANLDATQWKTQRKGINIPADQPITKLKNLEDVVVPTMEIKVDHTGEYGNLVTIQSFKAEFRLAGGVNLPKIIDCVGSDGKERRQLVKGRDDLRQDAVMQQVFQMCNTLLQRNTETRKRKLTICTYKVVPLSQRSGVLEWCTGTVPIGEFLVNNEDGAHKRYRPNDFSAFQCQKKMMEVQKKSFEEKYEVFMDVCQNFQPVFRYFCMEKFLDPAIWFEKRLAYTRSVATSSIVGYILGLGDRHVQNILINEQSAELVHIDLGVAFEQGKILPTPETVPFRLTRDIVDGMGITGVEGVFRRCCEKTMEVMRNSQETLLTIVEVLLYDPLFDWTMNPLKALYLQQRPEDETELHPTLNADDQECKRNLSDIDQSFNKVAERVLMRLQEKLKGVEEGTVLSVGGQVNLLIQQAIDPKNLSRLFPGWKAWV

COc1cc2ncc3c(c2cc1-c1n[nH]cc1C)n(-c1cn(C)nc1C)c(=O)n3C [compound 151, 1-(1,3-Dimethyl-1H-pyrazol-4-yl)-7-methoxy-3-methyl-8-(4-methyl-1H-pyrazol-3-yl)-1,3-dihydroimidazo[4,5-c] quinolin-2-one] was tested, and the IC50 was < 50 nM.

For COc1cc2ncc3c(c2cc1-c1cn(C)nn1)n(-c1c(C)cncc1F)c(=O)n3C [compound 63, 1-(3-Fluoro-5-methylpyridin-4-yl)-7-methoxy-3-methyl-8-(1-methyl-1H-1,2,3-triazol-4-yl)-1,3-dihydroimidazo-[4,5-c] quinolin-2-one], the IC50 was < 10 nM.

COc1cc2ncc3c(c2cc1-c1cnn(C)c1)n(-c1ccncc1C1CC1)c(=O)n3C [compound 200, 1-(3-Cyclopropylpyridin-4-yl)-7-methoxy-3-methyl-8-(1-methyl-1H-pyrazol-4-yl)-1,3-dihydroimidazo[4,5-c] quinolin-2-one] was tested, and the IC50 was < 50 nM.

With COc1cnc(-n2c(=O)n(C)c3cnc4cc(OC)c(-c5ccc6nc(C)[nH]c6c5)cc4c32)c(F)c1 [compound 144, 1-(3-Fluoro-5-methoxy-pyridin-2-yl)-7-methoxy-3-methyl-8-(2-methyl-3H-benzoimidazol-5-yl)-1,3-dihydroimidazo[4,5-c]-quinolin-2-one] the IC50 was < 1 nM.

With COc1cc2ncc3c(c2cc1-c1cnn(C)n1)n(-c1cn(C)nc1C)c(=O)n3C [compound 102, 1-(1,3-Dimethyl-1H-pyrazol-4-yl)-7-methoxy-3-methyl-8-(2-methyl-2H-1,2,3-triazol-4-yl)-1,3-dihydroimidazo-[4,5-c]quinolin-2-one] the IC50 was < 50 nM.

For COc1cc2ncc3c(c2cc1-c1cn(C)nn1)n(-c1cn(C)nc1C)c(=O)n3C [Compound Example 42, 1-(1,3-Dimethyl-1H-pyrazol-4-yl)-7-methoxy-3-methyl-8-(1-methyl-1H-1,2,3-triazol-4-yl)-1,3-dihydroimidazo-[4,5-c]quinolin-2-one], the IC50 was < 10 nM.

With COc1cc2ncc3c(c2cc1-c1cnn(C)c1)n(-c1ncc(Cl)cc1F)c(=O)n3C [compound 119, 1-(5-Chloro-3-fluoropyridin-2-yl)-7-methoxy-3-methyl-8-(1-methyl-1H-pyrazol-4-yl)-1,3-dihydroimidazo[4,5-c]-quinolin-2-one] the IC50 was < 1 nM.

In the case of COc1cc2ncc3c(c2cc1-c1cnn(C)c1)n(-c1ccccn1)c(=O)n3C [Compound Example 56, 7-Methoxy-3-methyl-8-(1-methyl-1H-pyrazol-4-yl)-1-pyridin-2-yl-1,3-dihydro-imidazo[4,5-c]quinolin-2-one], the IC50 is reported as < 10 nM.

For COc1cc2ncc3c(c2cc1-c1cnn(C)c1)n(-c1c(F)cncc1OC(F)F)c(=O)n3C [compound 146, 1-(3-Difluoromethoxy-5-fluoropyridin-4-yl)-7-methoxy-3-methyl-8-(1-methyl-1H-pyrazol-4-yl)-1,3-dihydroimidazo[4,5-c]-quinolin-2-one], the IC50 was < 1 nM.

With COc1cc2ncc3c(c2cc1-c1cnn(C)c1)n(-c1ccc(C#N)cn1)c(=O)n3C [Compound Example 48, 6-[7-Methoxy-3-methyl-8-(1-methyl-1H-pyrazol-4-yl)-2-oxo-2,3-dihydroimidazo-[4,5-c]quinolin-1-yl]-nicotinonitrile] the IC50 was < 10 nM.

With COc1cc2ncc3c(c2cc1-c1cnn(C)c1)n(-c1c(F)cncc1C1CC1)c(=O)n3C [compound 202, 1-(3-Cyclopropyl-5-fluoro-pyridin-4-yl)-7-methoxy-3-methyl-8-(1-methyl-1H-pyrazol-4-yl)-1,3-dihydro-imidazo[4,5-c]quinolin-2-one] the IC50 was < 1 nM.

COc1cc2ncc3c(c2cc1-c1cn(C)nn1)n(-c1c(F)cncc1OC)c(=O)n3C [compound 131, 1-(3-Fluoro-5-methoxy-pyridin-4-yl)-7-methoxy-3-methyl-8-(1-methyl-1H-1,2,3-triazol-4-yl)-1,3-dihydroimidazo[4,5-c]-quinolin-2-one] was tested, and the IC50 was < 10 nM.

For CNCCOc1cnc(-n2c(=O)n(C)c3cnc4cc(OC)c(-c5cnn(C)c5)cc4c32)c(F)c1 [compound 206], the IC50 was < 10 nM.

For C=CCOc1cnc(-n2c(=O)n(C)c3cnc4cc(OC)c(-c5cnn(C)c5)cc4c32)c(F)c1 [compound 204, 1-(5-Allyloxy-3-fluoropyridin-2-yl)-7-methoxy-3-methyl-8-(1-methyl-1H-pyrazol-4-yl)-1,3-dihydroimidazo[4,5-c]-quinolin-2-one], the IC50 was < 1 nM.

With COc1cc2ncc3c(c2cc1-c1cnn(C)n1)n(-c1ncccc1F)c(=O)n3C [compound 158, 1-(3-Fluoropyridin-2-yl)-7-methoxy-3-methyl-8-(2-methyl-2H-1,2,3-triazol-4-yl)-1,3-dihydroimidazo-[4,5-c] quinolin-2-one] the IC50 was < 500 nM.

With COc1cc2ncc3c(c2cc1-c1cnn(C)c1)n(-c1c(F)cncc1OCF)c(=O)n3C [compound 148] the IC50 was < 1 nM.

CCc1cncc(F)c1-n1c(=O)n(C)c2cnc3cc(OC)c(-c4cnn(C)n4)cc3c21 [compound 112, 1-(3-Ethyl-5-fluoropyridin-4-yl)-7-methoxy-3-methyl-8-(2-methyl-2H-1,2,3-triazol-4-yl)-1,3-dihydroimidazo-[4,5-c] quinolin-2-one] was tested, and the IC50 was < 10 nM.

In the case of COc1cnc(-n2c(=O)n(C)c3cnc4cc(OC)c(-c5ccn[nH]5)cc4c32)c(F)c1 [compound 109, 1-(3-Fluoro-5-methoxy-pyridin-2-yl)-7-methoxy-3-methyl-8-(2H-pyrazol-3-yl)-1,3-dihydroimidazo[4,5-c] quinolin-2-one], the IC50 is reported as < 10 nM.

For COc1cc2ncc3c(c2cc1-c1cnn(C)c1)n(-c1ncccn1)c(=O)n3C [Compound Example 52, 7-Methoxy-3-methyl-8-(1-methyl-1H-pyrazol-4-yl)-1-pyrimidin-2-yl-1,3-dihydro-imidazo[4,5-c]quinolin-2-one], the IC50 was < 10 nM.

CCn1cc(-n2c(=O)n(C)c3cnc4cc(OC)c(-c5cn(C)nc5C)cc4c32)c(C)n1 [compound 135, 8-(1,3-Dimethyl-1H-pyrazol-4-yl)-1-(1-ethyl-3-methyl-1H-pyrazol-4-yl)-7-methoxy-3-methyl-1,3-dihydro-imidazo[4,5-c]quinolin-2-one] was tested, and the IC50 was < 1 nM.

COc1cc2ncc3c(c2cc1-c1ccc2nc(C)[nH]c2c1)n(-c1cn(C)nc1C)c(=O)n3C [compound 132, 1-(1,3-Dimethyl-1H-pyrazol-4-yl)-7-methoxy-3-methyl-8-(2-methyl-3H-benzo-imidazol-5-yl)-1,3-dihydro-imidazo[4,5-c]quinolin-2-one] was tested, and the IC50 was < 1 nM.

With CCn1cc(-c2cc3c(cc2OC)ncc2c3n(-c3ccncc3OC)c(=O)n2C)cn1 [compound 104, 8-(1-Ethyl-1H-pyrazol-4-yl)-7-methoxy-1-(3-methoxy-pyridin-4-yl)-3-methyl-1,3-dihydroimidazo[4,5-c] quinolin-2-one] the IC50 was < 10 nM.

With COc1cc2ncc3c(c2cc1-c1ccn[nH]1)n(-c1c(F)cncc1OC)c(=O)n3C [compound 124, 1-(3-Fluoro-5-methoxy-pyridin-4-yl)-7-methoxy-3-methyl-8-(2H-pyrazol-3-yl)-1,3-dihydroimidazo[4,5-c] quinolin-2-one] the IC50 was < 50 nM.

In the case of COc1cc2ncc3[nH]c(=O)n(-c4c(F)cncc4OC)c3c2cc1-c1cnn(C)c1 [compound 116, 1-(3-Fluoro-5-methoxy-pyridin-4-yl)-7-methoxy-8-(1-methyl-1H-pyrazol-4-yl)-1,3-dihydroimidazo[4,5-c]-quinolin-2-one], the IC50 is reported as < 10 nM.

Source: patent US10457677B2 (priority 2015, dated 2019)
